Experimental data as given in the METLIN SMRT retention time set (Domingo-Almenara et al. 2019).

Experiment: gradient 5% acetonitrile 3 min, to 50% in 2 min, to 85% in 15 min, held 3 min, 100 µL/min
Settings: column: Zorbax Extend-C18 2.1 x 50 mm; eluents: water / acetonitrile, 0.1% formic acid
In short: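 The mobile phases were water and acetonitrile, each with 0.1% formic acid, pumped at 100 μL/min through a Zorbax Extend-C18 column (2.1 × 50 mm, 1.8 μm). Pure standards were injected as mixtures of ~100 molecules and detected by a quadrupole time-of-flight mass spectrometer in positive and negative ionization mode. Retention time came from computationally picked adduct peaks, each inspected by hand.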

| SMILES | RP-LC retention time |
| --- | --- |
| CCOC(=O)c1[nH]c(C)c(CCC(=O)N2CCN(C(=O)c3ccco3)CC2)c1C | 709 s |
| Cc1ccc(F)cc1NS(=O)(=O)c1c[nH]c2ncccc12 | 747 s |
| Cc1noc(C)c1S(=O)(=O)N1CCC(Cc2nc(-c3cccnc3)n[nH]2)C1 (centres undefined) | 624 s |
| COc1cc(CN2CC[C@@H]3CN(S(C)(=O)=O)[C@@H]3C2)ccc1F | 598 s |
| COc1ccc(OC)c2sc(NC(=O)c3cc(C)on3)nc12 | 748 s |
| Cc1ccnc(NC(=O)C2CCN(S(=O)(=O)c3c(C)nn(CC(=O)N4CCCC4)c3C)CC2)c1 | 619 s |
| O=C(Cc1nnc2c(-c3nc(C4CC4)no3)cccn12)NC1CCCCC1 | 685 s |
| Cc1ccc(N2CN(CCC(C)C)S(=O)(=O)c3cccnc32)cc1 | 1150 s |
| O=C(c1ccc(C(F)(F)F)cc1)N1CCC(n2c(-c3ccco3)nc3cccnc32)C1 (centres undefined) | 826 s |
| O=C(C1CCCC1)N1CCCC1c1nc(C2CCOCC2)no1 (centres undefined) | 725 s |
| NC(=O)c1nccn1Cc1ccccc1 | 645 s |
| CCOC(=O)c1c(C)[nH]c(C(=O)N2CCC(CC(=O)NC3CC3)CC2)c1C | 654 s |
| Cc1noc(-c2ccc(-n3ncc(C(=O)NC4CC4)c3C)nc2)n1 | 709 s |
| COCCCn1c(=O)c2ccccc2n(Cc2nc(-c3ccc(F)cc3)no2)c1=O | 1010 s |
| CC(C)Cc1csc(-c2csc(S(=O)(=O)NCc3ccccc3Cl)c2)n1 | 1330 s |
| COc1ccc(-c2noc(Cn3ccn(-c4cc(C)cc(C)c4)c(=O)c3=O)n2)cc1OC | 834 s |
| Fc1cccc(/C=N/N=C/c2cccc(F)c2)c1 | 1290 s |
| O=c1[nH]c2ccccc2c2ccccc12 | 806 s |
| Cc1c(C(=O)NC2CCCC2)cnn1-c1cc(-c2nc(C(C)(C)C)no2)ccn1 | 1130 s |

| SMILES | RP-LC retention time |
| --- | --- |
| COc1c(C(=O)NCc2ccc(C)o2)sc2ccc(Cl)cc12 | 1120 s |
| COc1ccc(C(=O)CSc2nc(-c3ccc(OC)cc3)ns2)cc1 | 1090 s |
| Cn1cnc(S(=O)(=O)NCCc2noc(-c3ccccc3)n2)c1 | 703 s |
| CCCn1nc(C)cc1CN(C)C(=O)Cn1nc2n(c1=O)CCC(N)CC2 (centres undefined) | 561 s |
| Cc1ccccc1OCc1nc(-c2cccc(-c3ccnn3C)c2)no1 | 1130 s |
| Cc1c(CCC(=O)N2CCC(C(N)=O)CC2)c(=O)oc2cc3oc4c(c3cc12)CCCC4 | 795 s |
| Cc1[nH]c2ccc(C(=O)NC3CCCC3)cc2c1C | 650 s |
| O=c1c2cc(-c3ccc(F)cc3)nn2ccn1CC(O)c1ccc2c(c1)OCO2 (centres undefined) | 864 s |
| Cc1cc2oc(=O)c(C)c(C)c2c2c1C(=O)CC(c1ccc3c(c1)OCO3)O2 (centres undefined) | 1110 s |
| O=S(=O)(Cc1ccccc1)N1CC(n2cc(COc3ccc(F)cc3)nn2)C1 | 899 s |
| CCOC(=O)c1sc(NC(=O)c2ccccc2F)nc1-c1ccccc1 | 1100 s |
| Cc1ccc(S(=O)(=O)N2C[C@@H]3CN(S(=O)(=O)c4ccccc4F)C[C@H](C2)O3)cc1 | 955 s |
| Clc1ccc(-c2csc(Nc3c(Cl)cccc3Cl)n2)cc1Cl | 1410 s |
| COc1ccc(/C=C/C(=O)c2ccc(OC)cc2OC)cc1 | 1100 s |
| Fc1ccc(-c2nnc(Cc3nc(-c4cccc(Br)c4)no3)o2)cc1 | 1090 s |
| CCOC(=O)c1[nH]c(C)c(C(=O)N2CCC(CC(=O)NC(C)C)CC2)c1C | 643 s |
| CCCNc1nc(N)c2ccccc2n1 | 573 s |
| O=C(c1nnc(-c2ccc(S(=O)(=O)N3CCCCC3)cc2)o1)N1CCCC1 | 760 s |

The next lines start with the values.

| RP-LC retention time | SMILES |
| --- | --- |
| 1070 s | N#Cc1cccc(NC(=O)C2CCN(S(=O)(=O)c3cc(-c4noc(C5CCC5)n4)cs3)CC2)c1 |
| 665 s | CCOC(=O)C1=C(CN2CCC(C(=O)OCC)CC2)NC(=O)NC1c1ccc(C)cc1 (centres undefined) |
| 914 s | Cc1cc(C)n(CC(=O)NC(C)c2ccccc2)c1-c1nc(C2CC2)no1 (centres undefined) |
| 939 s | CCCNS(=O)(=O)c1cc(-c2nnc(-c3ccccc3)o2)ccc1F |
| 642 s | Cc1noc(C2CN(C(=O)c3ccc(C#N)cc3)CC23CCOCC3)n1 (centres undefined) |
| 949 s | O=C(Nc1ccc2c(c1)CCCN2S(=O)(=O)c1ccccc1)OCc1ccccc1 |
| 702 s | O=C(Nc1cnn(-c2ncncc2N2CCCCC2)c1)c1ccc2c(c1)OCO2 |
| 726 s | O=C(NC1CCN(c2cc(-c3cccs3)[nH]n2)C1)c1ccc(F)cc1 (centres undefined) |
| 719 s | COc1ccc(CNC(=O)c2ccc3c(c2)NC(=O)C2CCCCN32)cc1OC (centres undefined) |
| 729 s | CCn1c(C)c(CN2CCC(C(=O)N3CCN(c4ccccc4F)CC3)CC2)c2ccccc21 |
| 1150 s | COc1ccc(-c2csc(N3CCN(c4ccc([N+](=O)[O-])c(-n5nc(C)cc5C)c4)CC3)n2)cc1 |
| 863 s | CCCNC(=O)N1CCN(c2nc3ccccc3n(Cc3ccccc3)c2=O)CC1 |
| 814 s | CC1=C(c2ccccc2)S(=O)(=O)N=C1N1CCCN(C(=O)C2CCCC2)CC1 |
| 662 s | O=C(CN1C(=O)CCc2cc(Br)ccc21)NCCN1CCc2ccccc2C1 |
| 708 s | CC(C)c1noc(-c2cccnc2N2CCCN(Cc3cccc(F)c3)CC2)n1 |
| 602 s | O=C(Nc1ccccc1)NC1CCCN(c2cc(-c3ccncc3)[nH]n2)C1 (centres undefined) |
| 784 s | Cc1ccc(CNC(=O)Nc2cccc(-c3ccc(N4CCC(C)CC4)nn3)c2)cc1 |
| 741 s | Cc1ccc(C(C)NC(=O)C2CCN(c3cnc4nccnc4c3)CC2)c(C)c1 (centres undefined) |
| 1230 s | CCCn1nnc(NCc2ccc(-c3ccc(Br)cc3Cl)o2)n1 |
| 736 s | CCc1onc(C)c1C1CCCN1C(=O)c1ccc(F)cc1 (centres undefined) |
| 1420 s | Cc1ccc(S(=O)(=O)c2cnc(N3CCN(c4cc(Cl)ccc4C)CC3)nc2N)cc1C |
| 762 s | CCOC(=O)Cn1c(C2CC(=O)N(c3ccc(OC)cc3)C2)nc2ccccc21 (centres undefined) |
| 709 s | COC(=O)Cn1c(C2CC(=O)N(c3ccc(OC)cc3)C2)nc2ccccc21 (centres undefined) |
| 608 s | Cc1ccnc(N2CCCC(C(=O)NCC3CCN(Cc4ccccc4F)CC3)C2)n1 (centres undefined) |
| 756 s | COc1ccc(-c2cn3c(CC(=O)Nc4cccc(C#N)c4)csc3n2)cc1 |
| 829 s | CCc1cc(=O)n(CC(=O)Nc2ccc(Br)cc2)c(N2CCOCC2)n1 |

| RP-LC retention time | SMILES |
| --- | --- |
| 680 s | Cc1cccc2nnc(N3CCCC(C(=O)Nc4ccccc4)C3)n12 (centres undefined) |
| 982 s | Cc1sc(NC(=O)Cc2nn(C)c(=O)c3ccccc23)nc1-c1ccc(Cl)cc1 |
| 806 s | CC(C)c1ccc(Nc2c(-c3ccc(N4CCOCC4)cc3)nc3ncccn23)cc1 |
| 1030 s | CCCCN1C(=O)C(C)(C(=O)Nc2ccc(F)cc2)Oc2cccnc21 (centres undefined) |
| 707 s | O=C(Cn1ccc2cc(S(=O)(=O)N3CCCCCC3)ccc21)N1CCN(c2ccccn2)CC1 |
| 840 s | COC(=O)CNC(=O)N1CCCCCC1c1cccc(C)c1 (centres undefined) |
| 808 s | CCOC(=O)c1[nH]c(C)c(CCC(=O)N2CCC(C(=O)NCc3ccccc3Cl)CC2)c1C |
| 988 s | CCS(=O)(=O)c1ccc2c(c1)N(Cc1nc(-c3ccc(Br)cc3)no1)C(=O)CO2 |
| 855 s | CC(C(=O)NCCc1cccs1)n1c2ccccc2c2cnn(C)c(=O)c21 (centres undefined) |
| 1090 s | COc1ccc(NC(=O)N2CC(Oc3ccc(-c4nc(-c5ccccc5)no4)cc3)C2)cc1 |
| 577 s | Cc1nnc(CNC(=O)C(C)n2nnc3ccccc3c2=O)o1 (centres undefined) |
| 708 s | CCCCCN1CC(=O)N(c2ccc(OC)cc2)[C@@H]2CS(=O)(=O)C[C@@H]21 |
| 782 s | CN1C(=O)CO[C@@H](C(=O)Nc2cccc(F)c2)[C@@H]1c1ccccc1 |
| 585 s | CN(C)c1ccc(NC(=O)COc2ccc(-c3nnc4n3CCCC4)cc2)cc1 |
| 738 s | Cc1cc(F)ccc1NC(=O)C1CCN(C(=O)C2Sc3ccccc3NC2=O)CC1 (centres undefined) |
| 688 s | O=C(Cn1c(=O)c2cccn2c2ccccc21)NC1CC1 |
| 741 s | O=C(Cc1ccccc1)NC1CCN(c2cc(-c3cccs3)[nH]n2)C1 (centres undefined) |
| 718 s | Cc1cccc(CNC(=O)CCc2c(-c3ccc(Br)cc3)nc3ccccn23)c1 |
| 1020 s | O=[N+]([O-])c1cccc(C2SCCN2S(=O)(=O)c2ccc(Br)cc2)c1 (centres undefined) |
| 640 s | O=C(Cc1ccccc1Cl)N1CCN(c2nc(CN3CCOCC3)cs2)CC1 |
| 913 s | COc1ccc(C2(C(=O)N3CCC(Oc4ccc(-c5noc(C)n5)cc4)C3)CC2)cc1 (centres undefined) |
| 691 s | COc1ccc(CCNC(=O)CN2C(=O)NC3(CCCCC3)C2=O)cc1OC |
| 912 s | Cc1ccc(NC(=O)CN2C(=O)CCCc3cc(S(=O)(=O)N4CCCC4)ccc32)c(Cl)c1 |
| 674 s | COc1ccc(Nc2c(-c3ccc(N4CCOCC4)cc3)nc3cnccn23)cc1OC |
| 1040 s | COc1ccc(-c2noc(C3CCCN3C(=O)c3ccc(C)c(F)c3)n2)cc1 (centres undefined) |
| 623 s | O=C1CCCCC(Cc2ccccc2)(C(=O)Nc2cccnc2)N1 (centres undefined) |
